Test results: PubChem BioAssay AID248 (DTP/NCI, 2004)
Toxic doses and inconclusive results are not listed.

Test system: L1210 leukemia ip in BDF1 mice, survival T/C
Assay: NCI In Vivo Anticancer Drug Screen. Data for tumor model L1210 Leukemia (intraperitoneal) in B6D2F1 (BDF1) mice
Conditions: endpoint: mean survival time, higher = longer survival
How it was run: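 Read-out is survival time, reported as the treated-group measurement over the vehicle-control measurement.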

[1] = dose: 12.5 mg/kg/injection, schedule: Q01DX009 (ip), vehicle: Klucel (hydroxypropylcellulose) (HPC)
[2] = dose: 12.5 mg/kg/injection, schedule: Q04DX003 (ip), vehicle: Klucel (hydroxypropylcellulose) (HPC)
[3] = dose: 25.0 mg/kg/injection, schedule: Q01DX009 (ip), vehicle: Klucel (hydroxypropylcellulose) (HPC)
[4] = dose: 25.0 mg/kg/injection, schedule: Q04DX003 (ip), vehicle: Klucel (hydroxypropylcellulose) (HPC)
[5] = dose: 50.0 mg/kg/injection, schedule: Q01DX009 (ip), vehicle: Klucel (hydroxypropylcellulose) (HPC)
[6] = dose: 100.0 mg/kg/injection, schedule: Q01DX009 (ip), vehicle: Klucel (hydroxypropylcellulose) (HPC)
[7] = dose: 100.0 mg/kg/injection, schedule: Q04DX003 (ip), vehicle: Klucel (hydroxypropylcellulose) (HPC)
[8] = dose: 200.0 mg/kg/injection, schedule: Q04DX003 (ip), vehicle: Klucel (hydroxypropylcellulose) (HPC)
[9] = dose: 100.0 mg/kg/injection, schedule: Q01DX001 (ip), vehicle: saline
[10] = dose: 200.0 mg/kg/injection, schedule: Q01DX001 (ip), vehicle: saline
[11] = dose: 100.0 mg/kg/injection, schedule: Q04DX002 (ip), vehicle: saline
[12] = dose: 200.0 mg/kg/injection, schedule: Q04DX002 (ip), vehicle: saline
[13] = dose: 100.0 mg/kg/injection, schedule: Q01DX009 (ip), vehicle: saline with Tween-80
[14] = dose: 100.0 mg/kg/injection, schedule: Q04DX003 (ip), vehicle: saline
[15] = dose: 200.0 mg/kg/injection, schedule: Q01DX009 (ip), vehicle: saline with Tween-80
[16] = dose: 200.0 mg/kg/injection, schedule: Q04DX003 (ip), vehicle: saline
[17] = dose: 400.0 mg/kg/injection, schedule: Q01DX009 (ip), vehicle: saline with Tween-80
[18] = dose: 400.0 mg/kg/injection, schedule: Q04DX003 (ip), vehicle: saline
[19] = dose: 100.0 mg/kg/injection, schedule: Q04DX003 (ip), vehicle: saline with Tween-80
[20] = dose: 200.0 mg/kg/injection, schedule: Q04DX003 (ip), vehicle: saline with Tween-80
[21] = dose: 400.0 mg/kg/injection, schedule: Q04DX003 (ip), vehicle: saline with Tween-80

## CNC(=S)N/N=C(\C)CSC/C(C)=N/NC(=S)NC
dose: 1.56 mg/kg/injection, schedule: Q03HX024 (ip), vehicle: Klucel (hydroxypropylcellulose) (HPC)
  T/C: 97 % of control
dose: 3.12 mg/kg/injection, schedule: Q01DX009 (ip), vehicle: Klucel (hydroxypropylcellulose) (HPC)
  T/C: 95 % of control
dose: 3.12 mg/kg/injection, schedule: Q03HX024 (ip), vehicle: Klucel (hydroxypropylcellulose) (HPC)
  T/C: 93 % of control
dose: 6.25 mg/kg/injection, schedule: Q01DX009 (ip), vehicle: Klucel (hydroxypropylcellulose) (HPC)
  T/C: 92 % of control
dose: 6.25 mg/kg/injection, schedule: Q03HX024 (ip), vehicle: Klucel (hydroxypropylcellulose) (HPC)
  T/C: 92 % of control
dose: 6.25 mg/kg/injection, schedule: Q04DX003 (ip), vehicle: Klucel (hydroxypropylcellulose) (HPC)
  T/C: 95 % of control
[1]
  T/C: 93 % of control
dose: 12.5 mg/kg/injection, schedule: Q03HX024 (ip), vehicle: Klucel (hydroxypropylcellulose) (HPC)
  T/C: 95 % of control
[2]
  T/C: 102 % of control
[3]
  T/C: 109 % of control
dose: 25.0 mg/kg/injection, schedule: Q03HX024 (ip), vehicle: Klucel (hydroxypropylcellulose) (HPC)
  T/C: 103 % of control
[4]
  T/C: 97 % of control
dose: 30.0 mg/kg/injection, schedule: Q04DX003 (ip), vehicle: saline
  T/C: 98 % of control
[5]
  T/C: 104 % of control
dose: 50.0 mg/kg/injection, schedule: Q03HX024 (ip), vehicle: Klucel (hydroxypropylcellulose) (HPC)
  T/C: 106 % of control
dose: 60.0 mg/kg/injection, schedule: Q04DX003 (ip), vehicle: saline
  T/C: 98 % of control
[6]
  T/C: 108 % of control
dose: 100.0 mg/kg/injection, schedule: Q03HX024 (ip), vehicle: Klucel (hydroxypropylcellulose) (HPC)
  T/C: 116 % of control
[7]
  T/C: 92 % of control
dose: 120.0 mg/kg/injection, schedule: Q04DX003 (ip), vehicle: saline
  T/C: 101 % of control
dose: 200.0 mg/kg/injection, schedule: Q01DX009 (ip), vehicle: Klucel (hydroxypropylcellulose) (HPC)
  T/C: 96 % of control
[8]
  T/C: 107 % of control
dose: 400.0 mg/kg/injection, schedule: Q04DX003 (ip), vehicle: Klucel (hydroxypropylcellulose) (HPC)
  T/C: 98 % of control

## O=P(CCl)(Oc1ccc(Cl)cc1)Oc1ccc(Cl)cc1
[9]
  T/C: 103 % of control
[10]
  T/C: 95 % of control

## O=C(O)CN1C(=O)CNC12CCCCC2
[9]
  T/C: 95 % of control
[10]
  T/C: 101 % of control
dose: 400.0 mg/kg/injection, schedule: Q01DX001 (ip), vehicle: saline
  T/C: 97 % of control

## CC1CCNC(C(C)C)CC1 (stereo not drawn)
[11]
  T/C: 96 % of control
[12]
  T/C: 115 % of control

## O=C(O)c1ccc(NC(=S)Nc2ccc(C(=O)O)cc2)cc1
[13]
  T/C: 93 % of control
[14]
  T/C: 94 % of control
[15]
  T/C: 112 % of control
[16]
  T/C: 100 % of control
[17]
  T/C: 93 % of control
[18]
  T/C: 104 % of control

## CCCNS(=O)(=O)c1ccc(Cl)c([N+](=O)[O-])c1
[2]
  T/C: 100 % of control
[4]
  T/C: 97 % of control
dose: 50.0 mg/kg/injection, schedule: Q04DX003 (ip), vehicle: Klucel (hydroxypropylcellulose) (HPC)
  T/C: 100 % of control
[7]
  T/C: 98 % of control
[8]
  T/C: 103 % of control

## CCC(CC)(Cc1ccccc1)C(=O)NC(=O)NOC
dose: 100.0 mg/kg/injection, schedule: Q01DX Z (ip), vehicle: methylcellulose (MC)
  T/C: 98 % of control
dose: 200.0 mg/kg/injection, schedule: Q01DX Z (ip), vehicle: methylcellulose (MC)
  T/C: 96 % of control

## NCCc1cnc(N=Nc2ccc(S(=O)(=O)N(CCCl)CCCl)cc2)[nH]1
[19]
  T/C: 93 % of control
[20]
  T/C: 86 % of control
[21]
  T/C: 89 % of control

## Nc1nc(N)nc(-c2ccccn2)n1
dose: 12.5 mg/kg/injection, schedule: Q01DX009 (ip), vehicle: saline with Tween-80
  T/C: 105 % of control
dose: 25.0 mg/kg/injection, schedule: Q01DX009 (ip), vehicle: saline with Tween-80
  T/C: 92 % of control
dose: 50.0 mg/kg/injection, schedule: Q01DX009 (ip), vehicle: saline with Tween-80
  T/C: 105 % of control

## Oc1c(-c2ccccc2)nn(O)c1-c1ccccc1
[5]
  T/C: 105 % of control

## O=C(O)C1CC(n2cnc3c(=O)[nH]cnc32)CN1 (stereo not drawn)
dose: 50.0 mg/kg/injection, schedule: Q04DX002 (ip), vehicle: saline with Tween-80
  T/C: 102 % of control
dose: 100.0 mg/kg/injection, schedule: Q04DX002 (ip), vehicle: saline with Tween-80
  T/C: 98 % of control

## O=C1c2cc([N+](=O)[O-])ccc2-c2cc(F)ccc21
dose: 50.0 mg/kg/injection, schedule: Q01DX001 (ip), vehicle: carboxymethylcellulose (CMC)
  T/C: 104 % of control
dose: 100.0 mg/kg/injection, schedule: Q01DX001 (ip), vehicle: carboxymethylcellulose (CMC)
  T/C: 95 % of control
dose: 200.0 mg/kg/injection, schedule: Q01DX001 (ip), vehicle: carboxymethylcellulose (CMC)
  T/C: 93 % of control
dose: 400.0 mg/kg/injection, schedule: Q01DX001 (ip), vehicle: carboxymethylcellulose (CMC)
  T/C: 90 % of control

## N#Cc1ncc(C(Cl)Cl)nc1Cl
[14]
  T/C: 101 % of control
[16]
  T/C: 92 % of control

## CC(=O)C1=CCC2C3CC(C)=C4CC(O)CCC4(C)C3CCC12C (stereo not drawn)
[19]
  T/C: 94 % of control
[20]
  T/C: 92 % of control
[21]
  T/C: 90 % of control

## NC(=O)Nc1cc(N)cc(NC(N)=O)c1
[14]
  T/C: 96 % of control
[16]
  T/C: 107 % of control
[18]
  T/C: 106 % of control

## CCOC(=O)c1nnn(-c2cccnc2)c1C
[11]
  T/C: 99 % of control
[12]
  T/C: 101 % of control
dose: 400.0 mg/kg/injection, schedule: Q04DX002 (ip), vehicle: saline
  T/C: 92 % of control

## O=C(O)C1Cc2c([nH]c3ccccc23)C(c2ccccc2)N1 (stereo not drawn)
[13]
  T/C: 96 % of control
[19]
  T/C: 104 % of control
[15]
  T/C: 94 % of control
[20]
  T/C: 102 % of control
[17]
  T/C: 97 % of control
[21]
  T/C: 96 % of control

## Nc1cnccc1N1CCN(c2ccc(Cl)c(Cl)c2)CC1
dose: 100.0 mg/kg/injection, schedule: Q01DX009 (ip), vehicle: gum acacia
  T/C: 95 % of control

## CCC/C(C)=N/Nc1ccccn1
[1]
  T/C: 97 % of control
[3]
  T/C: 94 % of control
dose: 25.0 mg/kg/injection, schedule: Q01DX009 (ip), vehicle: acetone
  T/C: 106 % of control
[5]
  T/C: 102 % of control
dose: 50.0 mg/kg/injection, schedule: Q01DX009 (ip), vehicle: acetone
  T/C: 87 % of control
dose: 50.0 mg/kg/injection, schedule: Q04DX003 (ip), vehicle: acetone
  T/C: 103 % of control
dose: 100.0 mg/kg/injection, schedule: Q01DX001 (ip), vehicle: acetone
  T/C: 98 % of control
[6]
  T/C: 102 % of control
dose: 100.0 mg/kg/injection, schedule: Q04DX003 (ip), vehicle: acetone
  T/C: 97 % of control
dose: 200.0 mg/kg/injection, schedule: Q01DX001 (ip), vehicle: acetone
  T/C: 103 % of control

## CN(C)C(=O)c1ccc(NC(=O)N(CCCl)N=O)cc1
dose: 0.5 mg/kg/injection, schedule: Q01DX001 (ip), vehicle: other
  T/C: 102 % of control
dose: 1.0 mg/kg/injection, schedule: Q01DX001 (ip), vehicle: other
  T/C: 120 % of control
dose: 2.0 mg/kg/injection, schedule: Q01DX001 (ip), vehicle: other
  T/C: 150 % of control
dose: 8.0 mg/kg/injection, schedule: Q01DX001 (ip), vehicle: other
  T/C: 182 % of control
dose: 16.0 mg/kg/injection, schedule: Q01DX001 (ip), vehicle: other
  T/C: 286 % of control
dose: 31.0 mg/kg/injection, schedule: Q01DX001 (ip), vehicle: other
  T/C: 88 % of control

## COc1cc2ccc3c4ccccc4c[n+](C)c3c2cc1OC
dose: 18.75 mg/kg/injection, schedule: Q01DX001 (ip), vehicle: saline with Tween-80
  T/C: 106 % of control
dose: 37.5 mg/kg/injection, schedule: Q01DX001 (ip), vehicle: saline with Tween-80
  T/C: 106 % of control
dose: 75.0 mg/kg/injection, schedule: Q01DX001 (ip), vehicle: saline with Tween-80
  T/C: 113 % of control
